Data from patent publication EP0532706B1, “REDUCTION OF CARDIOVASCULAR VESSEL OCCLUSIONS WITH ASCORBATE AND LIPOPROTEIN (a) BINDING INHIBITORS” (priority 1990, dated 1991).

Tests used:
in vivo = assay type: in vivo, guinea pig
Method: Blood was drawn by ear puncture from the anesthetized animals and collected into EDTA containing tubes at the beginning, after 10 days, and after 3 weeks, when the animals were sacrificed. Plasma was stored at -80°C until analyzed. Lp(a) was detected in the plasma of the guinea pigs by use of SDS-polyacrylamide gels according to Neville ((1971) J. Biol. Chem. 246:6328-6334) followed by Western blotting according to Beisiegel, et al. ((1982) J. Biol. Chem. 257:13150-13156). Forty »l of plasma and 20 mg of arterial wall homogenate were applied in delipidated form per lane of the gel. The immunodetection of apo(a) was performed using a polyclonal anti-human apo(a) antibody (Immuno, Vienna, Austria) followed by a rabbit anti-sheep antibody (Sigma) and the gold-conjugated goat anti-rabbit antibody with subsequent silver enhancement (Bio-Rad). The determinations of cholesterol and triglycerides were done at California Veterinary Diagnostics (Sacramento) using the enzyme assay of Boehringer Mannheim. The amount of plasma ascorbate was determined by the dinitrophenylhydrazine method according to Schaffer, et al. ((1955) J. Biol. Chem. 212:59).
To confirm the data obtained in Example 1, a second guinea pig experiment was conducted, using 33 male animals with a mean weight of 550 g and an approximate age of 5 months. One group of 8 animals served as a control and received 40 mg ascorbate/kg BW/d (group A). To induce hypoascorbemia 16 animals were fed 2 mg ascorbate/kg BW/d (group B). Group A and half of the animals of group B (progression sub-group) were sacrificed after 5 weeks as described above. Half of group B was kept for 2 more weeks, receiving daily intraperitoneal injection of 1.3 g Na-ascorbate/kg BW/d as a daily intra peritoneal injection with the intention to reduce the extent of atherosclerosis lesions. After this regression period these animals also were sacrificed.

atherosclerotic lesions = test: Example 2: area of aortic atherosclerotic lesions in guinea pig groups; assay type: in vivo
Source text: At necropsy the animals were anesthetized with metophase and exsanguinated. The aorta, heart and various other organs were taken for biochemical and histological analysis. The aorta was excised, the adventitial fat carefully removed, and the vessel was opened longitudinally. Subsequently the aorta was placed on a dark metric paper and a color slide was taken. The picture was projected and thereby magnified by an approximate factor of 10. The circumference of the ascending aorta, the aortic arch and thoracic aorta, as well as the atherosclerotic lesions in this area, were marked and measured with a digitalized planimetry system. The degree of atherosclerosis was expressed by the ratio of plaque area in relation to the total aortic area defined.
To confirm the data obtained in Example 1, a second guinea pig experiment was conducted, using 33 male animals with a mean weight of 550 g and an approximate age of 5 months. One group of 8 animals served as a control and received 40 mg ascorbate/kg BW/d (group A). To induce hypoascorbemia 16 animals were fed 2 mg ascorbate/kg BW/d (group B). Group A and half of the animals of group B (progression sub-group) were sacrificed after 5 weeks as described above. […]

[1] = Scurvy (progress), group B: 2 mg ascorbate/kg BW/d, 5 weeks
[2] = Regression (after Scurvy): 2 more weeks with daily intraperitoneal 1.3 g Na-ascorbate/kg BW/d

| concentration at 840 h (in vivo; guinea pig, in vivo, 2 mg/kg/day) [µg/mL] | concentration at 840 h (in vivo; guinea pig, in vivo, 40 mg/kg/day) [µg/mL] | concentration at 336 h (in vivo; guinea pig, in vivo, ip, 1300 mg/kg/day) [µg/mL] | Compound | Plasma Cholesterol (in vivo; Control, group A: 40 mg ascorbate/kg BW/d, 5 weeks) [mg/dL] | Plasma Cholesterol (in vivo; [1]) [mg/dL] | Atheroscl. Lesion (Percent of Aorta Thorac. Surface) (atherosclerotic lesions; [1]) | Plasma Cholesterol (in vivo; [2]) [mg/dL] | Atheroscl. Lesion (Percent of Aorta Thorac. Surface) (atherosclerotic lesions; [2]) |
| --- | --- | --- | --- | --- | --- | --- | --- | --- |
| 3.01 | 5.03 |  | O=C1O[C@H]([C@@H](O)CO)C(O)=C1O [ascorbate] | 39 | 54 | 25% of Aorta Thorac. Surface |  |  |
|  |  | 20.6 | O=C1O[C@H]([C@@H](O)CO)C(O)=C1O [Na-ascorbate] |  |  |  | 33 | 19% of Aorta Thorac. Surface |
